The values that follow come from patent US20010012832A1, “Method of hormone treatment for patients with symptoms consistent with multiple sclerosis” (priority 1999, published 2001).

In experiment [1] the test system is Somatomedin C Blood Levels. Put plainly: Somatomedin C blood levels before and after low dose-high frequency human growth hormone administration. It is filed as in vivo. Particulars: 47 patients; after vs before hGH. The text has this:
IGF-I is directly dependent upon the secretion of HGH by the pituitary gland, so therefore there is a direct linkage between increased secretion of HGH and increased production of IGF-I. Table II presents the effects of the low dose at high frequency human growth hormone administration (low dose-high frequency) contemplated by the invention on IGF-I (somatomedin C) blood levels. FIGS. 8 and 9 present the peak IGF-I levels in males and females, respectively, before and after administration of […]. FIGS. 8 and 9 show mean, minimum and maximum, and 25, 50, and 75 percentile for 204 males and 91 females, respectively. The method of the invention also contemplates that the HGH is administered in keeping with the way the pituitary secretes HGH naturally. The low dose-high frequency method mimics the pituitary gland. The pituitary secretes HGH 24 hours a day, with the peaks during the first two hours of sleep. The method contemplates that the patients take lower doses more frequently to try to mimic the natural rhythm of the body as much as possible. The invention contemplates that the patients take HGH injections at least twice daily. A preferred regimen calls for subcutaneous injections of doses less than 0.5 mg per day (approximately 1-3 I.U.), administered twice daily. Typical doses for this regimen range from 4 units per week to 8 units per week.

In the next experiment the test system is IGF-I levels. Put plainly: Peak IGF-I levels in males and females before and after administration. It is filed as in vivo, human. The source says: IGF-I is directly dependent upon the secretion of HGH by the pituitary gland, so therefore there is a direct linkage between increased secretion of HGH and increased production of IGF-I. Table II presents the effects of the low dose at high frequency human growth hormone administration (low dose-high frequency) contemplated by the invention on IGF-I (somatomedin C) blood levels. FIGS. 8 and 9 present the peak IGF-I levels in males and females, respectively, before and after administration of […]. FIGS. 8 and 9 show mean, minimum and maximum, and 25, 50, and 75 percentile for 204 males and 91 females, respectively.
The method of determining the level of the select group of hormones may be accomplished by a simple blood test. A patients' blood is evaluated for the hormone levels of the select group of hormones and those levels are compared to the optimal or predetermined physiological levels set forth in Table I. Based on the comparison of a patient's hormone levels with the optimal or predetermined physiological levels, a regimen is established for the patient for the replenishment of the level of deficient hormones to optimal physiological levels. It is further contemplated, that after the initial evaluation and the establishment of the regimen, a patient is monitored every 30 days, by a similar blood test, until the patient attains the optimal or predetermined physiological level, and the dosages of hormone supplementation are adjusted accordingly. Once the target levels are established, the regimen directs that the patient continue to follow the established dosage of supplemental hormones indefinitely to maintain the optimal or predetermined physiological levels. Periodic blood tests are subsequently administered to assure that the optimal or predetermined physiological levels are maintained.

Experiment [2] deals with adult female mice having induced EAE. As to conditions: 0.6 mg subcutaneously over a ten day period; vs placebo; cited from earlier work.

In the case of human growth hormone [hGH], the “Somatomedin C Blood Levels Increase, Mean” value in experiment [1] came to 61.0%.

Consider Insulin-like Growth Factor-I [IGF-I], for which, in the experiment with IGF-I levels (91 females), the “Peak IFG levels FEMALES CHANGE, 25%ile” value came to 26; the “Peak IFG levels FEMALES CHANGE, 50%ile” value was 72; the “Peak IFG levels FEMALES CHANGE, 75%ile” value is given as 128; the “Peak IFG levels FEMALES CHANGE, MAX” value is listed as 231. Further, in the experiment on IGF-I levels (91 females), the “Peak IFG levels FEMALES CHANGE, MEAN” value was determined as 74.0; the “Peak IFG levels FEMALES CHANGE, MEDIAN” value was found to be 72; the “Peak IFG levels FEMALES CHANGE, MIN” value is listed as −93. Moreover, the “Peak IFG levels FEMALES AFTER, 25%ile” value with IGF-I levels (91 females, before 111) is 177. For the same substance, the “Peak IFG levels FEMALES AFTER, 50%ile” value with IGF-I levels (91 females, before 164) is listed as 240. In the experiment on IGF-I levels (91 females, before 205), the “Peak IFG levels FEMALES AFTER, 75%ile” value is 294. Moreover, the “Peak IFG levels FEMALES AFTER, MAX” value in the experiment with IGF-I levels (91 females, before max 311) amounted to 378. For the same substance, the “Peak IFG levels FEMALES AFTER, MEAN” value in the experiment with IGF-I levels (91 females, before mean 162.2, mean 133.4 days) is listed as 236.3. Moreover, in the experiment on IGF-I levels (91 females, before median 154), the “Peak IFG levels FEMALES AFTER, MEDIAN” value was determined as 240. Further, the “Peak IFG levels FEMALES AFTER, MIN” value in the experiment on IGF-I levels (91 females, before min 41) was found to be 52. Also, in the experiment on IGF-I levels (204 males), the “Peak IFG levels MALES CHANGE, 25%ile” value was 24; the “Peak IFG levels MALES CHANGE, 50%ile” value is given as 76; the “Peak IFG levels MALES CHANGE, 75%ile” value came out at 125; the “Peak IFG levels MALES CHANGE, MAX” value stood at 258. Further, in the experiment on IGF-I levels (204 males), the “Peak IFG levels MALES CHANGE, MEAN” value is recorded as 74.4 and the “Peak IFG levels MALES CHANGE, MEDIAN” value came to 75.5. Moreover, the “Peak IFG levels MALES AFTER, 25%ile” value in the experiment on IGF-I levels (204 males, before 147) came out at 217. In addition, the “Peak IFG levels MALES AFTER, 50%ile” value in the experiment with IGF-I levels (204 males, before 183) is given as 273. For the same substance, the “Peak IFG levels MALES AFTER, 75%ile” value in the experiment on IGF-I levels (204 males, before 231) is 325. Moreover, the “Peak IFG levels MALES AFTER, MAX” value with IGF-I levels (204 males, before max 361) was 396. The “Peak IFG levels MALES AFTER, MEAN” value with IGF-I levels (204 males, before mean 192.3, mean 118.5 days) was found to be 266.7. Moreover, the “Peak IFG levels MALES AFTER, MEDIAN” value with IGF-I levels (204 males, before median 183) was found to be 272.5. In the experiment on IGF-I levels (204 males, before min 21), the “Peak IFG levels MALES AFTER, MIN” value is given as 63. In experiment [2], the “Clinical deficits in EAE mice” value is “reduced deficits”; the “Lesions in EAE mice” value was “reduced numbers and sizes of inflammatory, demyelinating and demyelinated lesions”.
